# US8927730B2, “Intramolecular hydrogen-bonded nitric oxide synthase inhibitors” (Northwestern University, priority 2010, dated 2015)
# How the values were obtained:
# [1] = biological target: HEK293t cells stably transfected with rat nNOS (Rattus norvegicus (Rat), UniProt P29476); experiment: nNOS cell-based assay (nitrite production, Griess reagent); settings: for Relationship (fold higher in cells): cell-based IC50 versus in vitro IC50; for IC50: inhibition of nitric oxide production in HEK293t cells stably expressing nNOS
# Method: HEK293t cells stably transfected with rat nNOS were cultured as previously described, and the nNOS inhibition assay was performed as previously reported (Fang, J.; Silverman, R. B. A cellular model for screening neuronal nitric oxide synthase inhibitors. Analytical Biochemistry 2009, 390, 74-78), with the following modifications: assays were performed in 96-well plates with a total volume of 100 μL, and 10 μM A23187 (Sigma Aldrich, St Louis, Mo., USA) in 50% DMSO was used in place of 5 μM. Nine concentrations of each inhibitor were tested, in at least triplicate wells. All inhibitors were assayed within the same experiment to assure consistencies in cell concentration and passage number. The entire assay was repeated at least twice for each inhibitor, and the IC50 values averaged. After 6 hours of activation (in the presence or absence of inhibitor, which was added 30 minutes before activation) 50 μL aliquots of the media were removed and nitrite production was quantified using Griess reagent. (See, Hevel, J. M.; White, K. A.; Marietta, M. Purification of the inducible murine macrophage nitric oxide synthase. Identification as a flavoprotein. J. Biol. Chem. 1991, 266, 22789-22791.)
# murine iNOS = murine iNOS (Mus musculus (Mouse), UniProt P29477); experiment: In vitro purified enzyme assay (hemoglobin capture), iNOS; assay type: biochemical; settings: for Ki: calculated from directly measured IC50 (Cheng-Prusoff), murine iNOS; for selectivity n/i: ratio of Ki (iNOS) to Ki (nNOS)
# Method: (§1) The three NOS isoforms, rat nNOS, murine iNOS and bovine eNOS were recombinant enzymes overexpressed in E. coli and purified as reported in the literature. (See, e.g., example 51 of the aforementioned incorporated '790 patent and the references cited therein.) The hemoglobin capture was used to measure nitric oxide production. (See, Hevel, J. M. and Marietta, M. A. Nitric Oxide Synthase Assays. Methods Enzymol. 1994, 133, 250-258.) Briefly, the assay was run at 37° C. in 100 mM HEPES buffer (10% glycerol; pH 7.4) in the presence of 10 μM L-arginine. The following NOS cofactors were also included in the assay: 100 μM NADPH, 10 μM tetrahydrobiopterin, 1 mM CaCl2, 11.6 μg/mL calmodulin and 3.0 μM oxyhemoglobin. For iNOS, calmodulin and CaCl2 were omitted. The assay was run in a high throughput manner, using the Synergry 4 by BioTek, at the Northwestern University HighThroughput Analysis Facility. The assay was run in triplicate; 48 100 uL reactions were ran at once in a 96 well plate. The addition of hemoglobin and NOS were automated with a maximum of a 30 second delay before the reactions could be recorded at 401 nm. The absorbance increase at 401 nm is due to the formation of NO via the conversion of oxyhemoglobin to methemoglobin.
# (§2) The IC50 values were obtained using non-linear regression in GraphPad Prism5 software.
# bovine eNOS = bovine eNOS (Bos taurus (Bovine), UniProt P29473); experiment: In vitro purified enzyme assay (hemoglobin capture), eNOS; assay type: biochemical; settings: for Ki: calculated from directly measured IC50 (Cheng-Prusoff), bovine eNOS; for selectivity n/e: ratio of Ki (eNOS) to Ki (nNOS)
# Method: as §1, §2
# rat nNOS = rat nNOS (Rattus norvegicus (Rat), UniProt P29476); experiment: In vitro purified enzyme assay (hemoglobin capture), nNOS; assay type: biochemical; settings: for Ki: calculated from directly measured IC50 (Cheng-Prusoff), rat nNOS; for IC50: purified enzyme assay
# Method: as §1, §2
# [2] = animal test results; cited from earlier work
# [3] = cited from earlier work
Structure (SMILES),Relationship (fold higher in cells) [1] [x],IC50 [1] [µM],Ki (murine iNOS) [µM],selectivity n/i (murine iNOS),Ki (bovine eNOS) [µM],selectivity n/e (bovine eNOS),Ki (rat nNOS) [µM],IC50 (rat nNOS) [µM],BBB penetration [2],pKa [3]
"Cc1cc(N)nc(C[C@H]2CNC[C@H]2OCCNCc2ccco2)c1 [Compound 3d, 6-(((3S,4S)-4-(2-(Furan-2-ylmethylamino)ethoxy)pyrrolidin-3-yl)methyl)-4-methylpyridin-2-amine]",123,420,36,92,66,169,0.4,3.4,–,–
"C=CCO[C@@H]1CN(C(=O)OC(C)(C)C)C[C@@H]1Cc1cc(C)cc(N(C(=O)OC(C)(C)C)C(=O)OC(C)(C)C)n1 [Compound 1, reference compound]",722,325,–,–,–,–,–,0.45,do not penetrate the BBB,–
"Cc1cc(N)nc(C[C@H]2CNC[C@H]2OCCNCc2ccccc2O)c1 [Compound 3c, 2-((2-((3S,4S)-4-((6-Amino-4-methylpyridin-2-yl)methyl)pyrrolidin-3-yloxy)ethylamino)methyl)phenol]",150,520,57,143,37,93,0.39,3.5,–,–
"Cc1cc(N)nc(C[C@H]2CNC[C@H]2OCCNCc2ccccc2F)c1 [Compound 3a, 6-(((3S,4S)-4-(2-(2-Fluorobenzylamino)ethoxy)pyrrolidin-3-yl)methyl)-4-methylpyridin-2-amine]",33,120,44,105,40,98,0.41,3.6,–,–
"CNc1cc(N)nc(NC)c1.Cl [Aminopyridine, 2-amino-4,6-dimethylaminopyridine hydrochloride, reference compound]",500,–,–,–,–,–,–,0.05,–,~7
"Cc1cc(C[C@H]2CN(C(=O)OC(C)(C)C)C[C@H]2OCC=O)nc(N(C(=O)OC(C)(C)C)C(=O)OC(C)(C)C)c1 [Compound 2, reference compound]",125,125,–,–,–,–,–,1,do not penetrate the BBB,–
"COc1ccccc1CNCCO[C@@H]1CNC[C@@H]1Cc1cc(C)cc(N)n1 [Compound 3b, 6-(((3S,4S)-4-(2-(2-Methoxybenzylamino)ethoxy)pyrrolidin-3-yl)methyl)-4-methylpyridin-2-amine]",27,190,114,139,77,93,0.82,7.1,–,–
